Reference: PMC12973313 (Chemical Science, 2026)
Values after ≈ are worked out from the molar mass of the structure shown. Values joined by “and” are separate entries in the source; they are usually repeats but may differ in a detail not shown here. Equal entries are not always repeated. Where two headings read alike, the source gives them in different places.

How the values were obtained:
[1] = Cl-/NO3- antiport assay, chloride ISE; assay type: biochemical; details: pH 7.2; for EC50 Cl-/NO3- antiport: 50% chloride efflux after 270 s; for n (Hill coefficient): Hill analysis
Excerpt: Although evidence supports the hypothesis that SSAs are able to act as selective phospholipid membrane coordination and/or disruption agents,[39] to date we have minimal evidence that verifies the role ion transport events may play in the SSA mechanism of biological activity, or the types of transmembrane SSA structures which may be involved in facilitating these events, such as ion channels or membrane pores. Therefore, to confirm the role ion transport may play in the biological activity of SSAs, we explored the ability of SSAs 1, 3, 5, 7, and 9 to mediate ion transport in phospholipid vesicles (Section S17). We initially performed a Cl^−/NO3^− antiport assay.[52] Large unilamellar vesicles composed of 1-palmitoyl-2-oleoyl-sn-glycero-3-phosphocholine (POPC) were prepared containing NaCl (ionic strength = 500 mM) buffered to pH 7.2 with sodium phosphate salts. The vesicles were suspended in NaNO3 (ionic strength = 500 mM) at pH 7.2 (Fig. 4a). On addition of the SSA as a 5 mM DMSO stock solution (which was maintained throughout these experiments to minimise any variation in aggregation state induced by changes in concentration), any resulting chloride efflux was detected using a chloride ion selective electrode (ISE). All of these molecules but compound 1 (Section S17) mediated a modest amount of chloride efflux when added at 10 mol% w.r.t. lipid (Fig. 4b and c)which is surprising given the negative charge of the SSA anion. […] We were unable to observe significant transport activity when these compounds were added as a stock solution dissolved in water (5 mM). […]
Section S3: Biological methods
Preparation of vesicles: A stock solution of 1-palmitoyl-2-oleoyl-sn-glycero-3-phosphocholine (POPC) was prepared by dissolving 1 g of POPC in 35 mL de-acidified CHCl3. The CHCl3 was passed through a column of basic alumina before use. This solution was stored at -20 °C when […]
A lipid film of POPC was prepared by adding 1–4 mL of the above stock solution into a pre-weighed falcon tube and gently removing the CHCl3 under a stream of nitrogen. The lipid film was dried under vacuum overnight. The lipid film was re-hydrated by vortexing with the desired internal buffer solution, then subjected to 9 freeze-thaw cycles. Typically, the lipids were not thawed on the last cycle and were stored at -20 °C for use at a later date.
The lipid was thawed to room temperature and allowed to stand for 30 mins, then extruded 27 times through a 200 nm polycarbonate membrane. The resulting unilamellar vesicles were dialysed against the desired external buffer solution for a minimum of 2 hours.
Transport experiments protocol: The vesicles prepared as described above were diluted to a known volume of 5 mL using the desired external buffer solution. This solution was further diluted into individual 5 mL samples for testing at a final lipid concentration of 1 mM. The transporter was added to the vesicles from a stock solution in DMSO (5 mM) after 30 s in order to initiate the transport and any resulting chloride efflux was monitored using a chloride selective electrode (ISE – Cole Parmer). At the end of the experiment, the vesicles were lysed by the addition of 40 µL Triton-X 100 (10 wt% in H2O). The final electrode reading was taken 2 mins later and used to calibrate 100% chloride efflux. Each experiment was performed 3 […]
Section S17: Ion transport studies
Cl-/NO3- antiport Hill plots – pH 7.2
Internal buffer: 500 mM NaCl buffered to pH 7.2 with 5 mM sodium phosphate salts.
External buffer: 500 mM NaNO3 buffered to pH 7.2 with 5 mM sodium phosphate salts.
Figure S134 - Transport data for the Cl-/NO3- antiport Hill plot experiment with compound 1.
Full Hill analysis was not performed due to the low observed activity of this compound.
(§1) (1 picture or pasted object on this page, not shown here)

[2] = 1H NMR titration, host:guest association; details: 1:1 binding isotherm, DMSO-d6 0.5% H2O, 298 K, guest as TBA salt
Excerpt: Here H2PO4^- was used to model the phosphate present in the phospholipid headgroup, while Cl^- was incorporated into these studies as a common biologically relevant anion. […] Summary […] using Bindfit v0.5,1 conducted in DMSO-d6/0.5 % H2O at 298 K. Anionic guest species were supplied as the TBA salt. Data was fitted to both 1:1, 1:2 and 2:1 binding isotherm. […] 94

S. aureus USA300 = experiment: MIC assay; assay type: cell-based; details: Staphylococcus aureus
Description: Next generation SSAs 3, 5, 7, and 9 were specifically designed to increase the activity of SSAs against both drug susceptible and resistant S. aureus and ovarian cancer cells. […] These strains include: (i) USA300, a common clinically relevant, methicillin resistant strain;[47] […]
Section S3: Biological methods […]
Preparation of bacterial plates : Sterile TSB agar plates were streaked using the desired […]
Preparation of inoculum: An initial culture was made up by inoculating TSB (5 mL) with 3 single colonies of the desired bacteria under sterile conditions and incubated at 37 °C overnight. The optical density at 600 nm (OD 600) was adjusted using sterile distilled H 2O (dH2O) to equal ~1 x 10^6 bacteria/mL.
Preparation of 96 -well microplate : A solution of each compound in H2O/5 % EtOH was made […]
The compound solution (200 […]
µL) was added to and diluted 50:50 down the plate. The bacterial suspension (100 µL) was dispensed into each well under sterile conditions. […]

[3] = 1H NMR dilution study, self-association constants (Bindfit v0.5); assay type: physicochemical; details: 298 K; for Kdim, CoEK model / Ke, CoEK model / Ke, EK model / ρ, CoEK model: DMSO-d6/0.5 % H2O; for Kdim / Kdim (M^-1): equal K/dimerization model, DMSO-d6 0.5% H2O
Description: This enables the quantification of parameters such as SSA anion dimerization constant which we have shown to correlate with critical aggregation concentration (CAC) values obtained from aqueous solutions of that same SSA.[30]
Figure S40 – Graph illustrating the 1H NMR down-field change in chemical shift of urea NH
resonances with increasing concentration of 9 in DMSO-d6/0.5 % H2O (298 K).
Self-association constant calculation: values were calculated from data gathered from both
NH’s and fitted to the Cooperative Equal K (CoEK) and Equal K/ dimerization binding models.
Equal K/Dimerization model:
Table S8- The self-association constants (Ke and Kdim) calculated for 3, 5, 7 and 9 in DMSO-d6/
0.5 % H2O solution at 298 K. Constants were obtained for the EK and CoEK models by fitting
1H NMR self-association data to Bindfit v0.5.
EK model (M-1) CoEK model (M-1)
Compound Ke Error Kdim Error Ke Error Kdim Error ⍴ Error
(± %) (± %) (± %) (± %) (± %)
as §1

[4] = USA300, 15 h, total molecular concentration, after 900 min, read-out: MIC USA300
[5] = USA300, lowest concentration with no visible growth, read-out: MIC (mM) S. aureus USA 300

SMILES	EC50 Cl-/NO3- antiport [1]	n (Hill coefficient) [1]	Ka / Kass (M-1), guest H2PO4- [2]	MIC (S. aureus USA300; [4])	MIC (S. aureus USA300; [5])	Kdim, CoEK model [3]	Ke, CoEK model [3]	Ke, EK model [3]	ρ, CoEK model [3]	Kdim [3]	Kdim (M^-1) [3]	Ka / Kass (M-1), guest Cl- [2]	other results
O=C(Nc1ccc(C(F)(F)F)cc1)N[C@@H](Cc1ccccc1)C(=O)O [SSA 7]	> 15 mol% w.r.t. lipid	1.4	30.27 M⁻¹ and 30 M⁻¹	0.087 mM (≈ 30.7 µg/mL)	0.087 mM (≈ 30.7 µg/mL)	10.58 M⁻¹	21.17 M⁻¹	55.52 M⁻¹	2.86	27.76 M⁻¹	28 (±2.1%) M^−1		
CC(C)CC(NC(=O)Nc1ccc(C(F)(F)F)cc1)C(=O)O (stereo not shown) [SSA 5]	> 15 mol% w.r.t. lipid											No evidence of host: guest complex formation detected	n (Hill coefficient) ([1]; listed as 5): 1.7; Kdim, CoEK model ([3]; listed as 5): 175.90 M⁻¹; Ke, CoEK model ([3]; listed as 5): 351.80 M⁻¹; Ke, EK model ([3]; listed as 5): 180.55 M⁻¹; ρ, CoEK model ([3]; listed as 5): 3.41; Kdim ([3]; listed as 5): 90.27 M⁻¹; Kdim (M^-1) ([3]; listed as 5): 90 (±3.2%) M^−1
O=C(O)CNC(=O)Nc1ccc(C(F)(F)F)cc1 [SSA 1]			12.59 M⁻¹	> 2.78 mM	> 2.78 mM							4.33 M⁻¹	
O=C(Nc1ccc(C(F)(F)F)cc1)N[C@H](Cc1ccccc1)C(=O)O [SSA 9]	> 15 mol% w.r.t. lipid	1.3		0.087 mM (≈ 30.7 µg/mL)	0.087 mM (≈ 30.7 µg/mL)	8.92 M⁻¹	17.84 M⁻¹	45.90 M⁻¹	2.62	22.95 M⁻¹	23 (±2.5%) M^−1	No evidence of host: guest complex formation detected	
CC(C)CC(NC(=O)Nc1ccc(C(F)(F)F)cc1)C(=O)O (stereo not shown) [SSA 3]	> 15 mol% w.r.t. lipid		No evidence of host: guest complex formation detected	> 2.78 mM								No evidence of host: guest complex formation detected	n (Hill coefficient) ([1]; listed as 3): 1.4; Kdim, CoEK model ([3]; listed as 3): 280.45 M⁻¹; Ke, CoEK model ([3]; listed as 3): 560.90 M⁻¹; Ke, EK model ([3]; listed as 3): 242.72 M⁻¹; ρ, CoEK model ([3]; listed as 3): 2.29; Kdim ([3]; listed as 3): 121.36 M⁻¹; Kdim (M^-1) ([3]; listed as 3): 121 (±1.9%) M^−1
